Measurements from patent US12624350B2, “High-throughput single-nuclei and single-cell libraries and methods of making and of using” (ILLUMINA, INC., priority 2019, dated 2026).

Tested on: HEK293T cells
Experiment: flavopiridol time course, sci-RNA-seq with hash ladder
Format: cell-based, human
Conditions: 300 nM, longest exposure times
Description: For the flavopiridol time course experiment, HEK293T cells were seeded onto a 6-well culture plate at a density of 4×10^5 cells per well. For the HDAC inhibitor time course and HDAC inhibitor and Dexamethasone co-treatment experiments, A549 cells were seeded onto a 96-well culture plate at a density of 2.5×10^4 cells per well.
The cells were grown for 24 hours after they were seeded onto the cell culture plates. For the flavopiridol time course experiment, 0.9 uL of 1 mM flavopiridol was added to each 6 well to attain final concentration of 300 nM. […]
The capture of hash ladder by nuclei is determined by factors including, but not limited to, sample processing and sequencing depth. […] We empirically determined that the ladder should be constructed so that around 6 million hash molecules are captured per nuclei (assuming that each nucleus takes up equal amount of hash molecules in the solution) to obtain a median hash UMI count of 1,000-5,000. […]
For the harvest of cells, media was removed and cells were washed with DPBS and dissociated off the plate using trypLE. […] Cells were then counted with a hemocytometer using 0.4% Trypan Blue. […]
Isolated and hashed nuclei were then permeabilized in permeabilization buffer (0.25% Triton-X in NSB) for 3 minutes on ice and then spun down. […] Cell counts were obtained by staining nuclei with 0.4% Trypan Blue (Sigma-Aldrich) and counted using a hemocytometer. […]

SMILES: CN1CC[C@H](c2c(O)cc(O)c3c(=O)cc(-c4ccccc4Cl)oc23)[C@H](O)C1 [flavopiridol]
- RNA recovery per-cell (total RNA UMI counts): greatest reduction in RNA recovery per-cell
